Experimental data as given in the supplement of paper PMC8967900.

Legend:
Assay in all cases: selective drug sensitivity score (sDSS, relative to normal bone marrow) (sDSS (score)); higher = more potent and effective on the cell line relative to normal bone marrow cells
Details in all cases: 72 h
COG-LL-319h = tested on: COG-LL-319h
ALL-PO = tested on: ALL-PO
SUP-B15 = tested on: SUP-B15
TANOUE = tested on: TANOUE
DND-41 = tested on: DND-41
PEER = tested on: PEER
RCH-ACV = tested on: RCH-ACV
KOPN-8 = tested on: KOPN-8
REH = tested on: REH
COG-LL-317 = tested on: COG-LL-317
P30-OHKUBO = tested on: P30-OHKUBO
JURKAT = tested on: JURKAT
HPB-ALL = tested on: HPB-ALL
380 = tested on: 380
NALL-1 = tested on: NALL-1
MOLT-16 = tested on: MOLT-16
MOLT-4 = tested on: MOLT-4
COG-LL-394h = tested on: COG-LL-394h
MN-60 = tested on: MN-60
CCRF-CEM = tested on: CCRF-CEM
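Note: ALL cell lines in 384-well plates, five doses spanning 10,000-fold, each plate scaled between vehicle and 100 µmol/L benzalkonium chloride controls, sDSS an adapted area-under-curve metric.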

| SMILES | selective drug sensitivity score (COG-LL-319h) | selective drug sensitivity score (ALL-PO) | selective drug sensitivity score (SUP-B15) | selective drug sensitivity score (TANOUE) | selective drug sensitivity score (DND-41) | selective drug sensitivity score (PEER) | selective drug sensitivity score (RCH-ACV) | selective drug sensitivity score (KOPN-8) | selective drug sensitivity score (REH) | selective drug sensitivity score (COG-LL-317) | selective drug sensitivity score (P30-OHKUBO) | selective drug sensitivity score (JURKAT) | selective drug sensitivity score (HPB-ALL) | selective drug sensitivity score 380 | selective drug sensitivity score (NALL-1) | selective drug sensitivity score (MOLT-16) | selective drug sensitivity score (MOLT-4) | selective drug sensitivity score (COG-LL-394h) | selective drug sensitivity score (MN-60) | selective drug sensitivity score (CCRF-CEM) |
| --- | --- | --- | --- | --- | --- | --- | --- | --- | --- | --- | --- | --- | --- | --- | --- | --- | --- | --- | --- | --- |
| CNC(=O)c1ccc(C)c(-n2c(C)cc(OCc3ccc(F)cc3F)c(Br)c2=O)c1 (top concentration 1000 nM) | 0 | 0 | 0 | 0 | 0 | 0 | 7.4 | 0.7 | 4 | 0 | 4.5 | 0.9 | 4.6 | 0 | 0.3 | 0 | 0 | 0 | 0 | 0 |
| CCNc1nc(Nc2cc(F)c(C(=O)N3CCOCC3)cc2OC)ncc1C(F)(F)F [GNE-7915] (top concentration 1000 nM) | -0.06 | -0.06 | -0.06 | -0.06 | -0.06 | -0.06 | -0.06 | -0.06 | -0.06 | 0.34 | -0.06 | -0.06 | -0.06 | -0.06 | -0.06 | -0.06 | -0.06 | -0.06 | -0.06 | -0.06 |
| COc1cc2c(NC3CCN(C(C)C)CC3)nc(C3CCCCC3)nc2cc1OCCCN1CCCC1 [UNC0638] (top concentration 10000 nM) | 8.26 | -1.74 | -1.04 | -5.14 | 3.36 | 1.26 | 0.66 | -4.44 | -0.24 | 0.06 | 0.86 | -2.64 | -3.44 | 0.06 | -5.14 | -1.04 | -3.74 | 0.16 | -2.64 | 0.46 |
| CCC1(c2ccc(N)cc2)CCC(=O)NC1=O (stereo not given) [Aminoglutethimide] (top concentration 10000 nM) | 0 | 0 | 0 | 0 | 0 | 0 | 0 | 0 | 0.6 | 0 | 0 | 0 | 0.4 | 0 | 0 | 0 | 0 | 0 | 0 | 0 |
| Nc1cccc2c1C(=O)N(C1CCC(=O)NC1=O)C2=O (stereo not given) [Pomalidomide] (top concentration 10000 nM) | -0.26 | 8.14 | -0.26 | -0.26 | 4.24 | -0.26 | 9.54 | -0.26 | 2.74 | -0.26 | 0.54 | -0.26 | 1.44 | -0.26 | -0.06 | -0.26 | -0.26 | 0.04 | -0.26 | -0.26 |
| Cc1nc2cccc(N)c2c(=O)n1C1CCC(=O)NC1=O (stereo not given) [Avadomide (CC122)] (top concentration 10000 nM) | 0 | 0 | 0 | 0 | 0 | 0 | 10.5 | 1.3 | 3.6 | 0 | 5.9 | 0 | 0 | 0 | 0 | 0 | 0 | 0 | 2.3 | 0.9 |
| O=S(=O)(c1cccc2c(O)nccc12)N1CCCNCC1 [Hydroxyfasudil] (top concentration 19000 nM) | -0.72 | -0.92 | -0.52 | -0.92 | -0.92 | 0.08 | -0.72 | 0.78 | -0.62 | -0.22 | -0.52 | -0.92 | -0.92 | 3.98 | 2.58 | -0.02 | -0.72 | -0.92 | -0.92 | -0.32 |
| CONC(=O)c1ccccc1Nc1cc(Nc2cc(C)nn2C(C)C)ncc1Cl (top concentration 1000 nM) | 9.66 | -0.14 | -0.94 | 0.36 | 0.56 | -0.94 | -0.94 | 3.86 | -0.94 | -0.94 | -0.94 | -0.94 | -0.94 | 1.16 | -0.94 | -0.94 | -0.94 | -0.94 | -0.94 | -0.94 |
| CCN(c1cc(-c2ccc(CN3CCOCC3)cc2)cc(C(=O)NCc2c(C)cc(C)[nH]c2=O)c1C)C1CCOCC1 [Tazemetostat] (top concentration 10000 nM) | -0.08 | 0.32 | -0.08 | -0.08 | 0.02 | 0.32 | -0.08 | -0.08 | -0.08 | -0.08 | 0.42 | 0.02 | -0.08 | -0.08 | 8.22 | -0.08 | -0.08 | -0.08 | -0.08 | 1.02 |
